PubChem BioAssay AID1259407 (Chemical Carcinogenesis Research Information System (CCRIS), 2018)
Active and inactive are the calls of the source. How the calls were made is not given here.

System: CCRIS mutagenicity, Ames/micronucleus/aberration tests
Experiment: CCRIS mutagenicity studies
[1] = Test System: AMES SALMONELLA TYPHIMURIUM, Strain/Indicator: TA100, Metabolic Activation: NONE, Method: STANDARD PLATE

SMILES | mutagenic call (Test System: AMES SALMONELLA TYPHIMURIUM, Strain/Indicator: TA98, Metabolic Activation: HAMSTER, LIVER, S-9, AROCLOR 1254, Method: STANDARD PLATE) | mutagenic call (Test System: AMES SALMONELLA TYPHIMURIUM, Strain/Indicator: TA98, Metabolic Activation: NONE, Method: STANDARD PLATE) | mutagenic call (Test System: AMES SALMONELLA TYPHIMURIUM, Strain/Indicator: TA98, Metabolic Activation: RAT, LIVER, S-9, AROCLOR 1254, Method: STANDARD PLATE) | mutagenic call (Test System: AMES SALMONELLA TYPHIMURIUM, Strain/Indicator: TA100, Metabolic Activation: HAMSTER, LIVER, S-9, AROCLOR 1254, Method: STANDARD PLATE) | mutagenic call [1] | mutagenic call (Test System: AMES SALMONELLA TYPHIMURIUM, Strain/Indicator: TA100, Metabolic Activation: RAT, LIVER, S-9, AROCLOR 1254, Method: STANDARD PLATE) | mutagenic call (Test System: AMES SALMONELLA TYPHIMURIUM, Strain/Indicator: TA1535, Metabolic Activation: HAMSTER, LIVER, S-9, AROCLOR 1254, Method: STANDARD PLATE) | mutagenic call (Test System: AMES SALMONELLA TYPHIMURIUM, Strain/Indicator: TA1535, Metabolic Activation: NONE, Method: STANDARD PLATE) | mutagenic call (Test System: AMES SALMONELLA TYPHIMURIUM, Strain/Indicator: TA1535, Metabolic Activation: RAT, LIVER, S-9, AROCLOR 1254, Method: STANDARD PLATE) | mutagenic call (Test System: AMES SALMONELLA TYPHIMURIUM, Strain/Indicator: TA1537, Metabolic Activation: HAMSTER, LIVER, S-9, AROCLOR 1254, Method: STANDARD PLATE) | mutagenic call (Test System: AMES SALMONELLA TYPHIMURIUM, Strain/Indicator: TA1537, Metabolic Activation: NONE, Method: STANDARD PLATE) | mutagenic call (Test System: AMES SALMONELLA TYPHIMURIUM, Strain/Indicator: TA1537, Metabolic Activation: RAT, LIVER, S-9, AROCLOR 1254, Method: STANDARD PLATE) | mutagenic call (Test System: AMES SALMONELLA TYPHIMURIUM, Strain/Indicator: TA1538, Metabolic Activation: HAMSTER, LIVER, S-9, AROCLOR 1254, Method: STANDARD PLATE) | mutagenic call (Test System: AMES SALMONELLA TYPHIMURIUM, Strain/Indicator: TA1538, Metabolic Activation: NONE, Method: STANDARD PLATE) | mutagenic call (Test System: AMES SALMONELLA TYPHIMURIUM, Strain/Indicator: TA1538, Metabolic Activation: RAT, LIVER, S-9, AROCLOR 1254, Method: STANDARD PLATE) | mutagenic call (Test System: MOUSE LYMPHOMA, Strain/Indicator: L5178Y (TK+/TK-), Metabolic Activation: NONE, Method: SUSPENSION/PLATE) | mutagenic call (Test System: MOUSE LYMPHOMA, Strain/Indicator: L5178Y (TK+/TK-), Metabolic Activation: RAT, LIVER, S-9, AROCLOR 1254, Method: SUSPENSION/PLATE)
Nc1nc2cc(Cl)c(Cl)cc2s1 | inactive; negative | inactive; negative | inactive; negative | inactive; negative | inactive; negative | inactive; negative | inactive; negative | inactive; negative | inactive; negative | inactive; negative | inactive; negative | inactive; negative | inactive; negative | inactive; negative | inactive; negative | inactive; negative. reevaluation of results: negative | inactive; negative. reevaluation of results: negative
O=C1NC(=O)C(CBr)=C1Cl |  |  |  |  | active; positive |  |  |  |  |  |  |  |  |  |  |  | 
